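Five compound concentrations were applied to cells in 96-well plates for 48 hours; endpoints were derived by simple linear interpolation of the resulting dose-response curve. Abbreviation: GI50, concentration required for 50% inhibition of growth.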 Active and inactive are the calls of the source. No stated cut-off is given here; in the data, active = GI50 up to about 1.1 µM and inactive = higher.
Columns and labels:
Test in all cases: growth of human tumour cells (NCI), 48 h
786-0 = test system: 786-0
A498 = test system: A498
A549 = test system: A549
ACHN = test system: ACHN
BT-549 = test system: BT-549
CAKI-1 = test system: CAKI-1
CCRF-CEM = test system: CCRF-CEM
COLO 205 = test system: COLO 205
DU-145 = test system: DU-145
EKVX = test system: EKVX
HCT-116 = test system: HCT-116
HCT-15 = test system: HCT-15
HL-60 = test system: HL-60
HOP-62 = test system: HOP-62
HOP-92 = test system: HOP-92
HT-29 = test system: HT-29
Hs-578T = test system: Hs-578T
IGROV-1 = test system: IGROV-1
K562 = test system: K562
KM12 = test system: KM12
LOX IMVI = test system: LOX IMVI
M14 = test system: M14
MCF7 = test system: MCF7
MDA-MB-231 = test system: MDA-MB-231
MDA-MB-435 = test system: MDA-MB-435
MDA-N = test system: MDA-N
MOLT-4 = test system: MOLT-4
Malme-3M = test system: Malme-3M
NCI-H226 = test system: NCI-H226
NCI-H23 = test system: NCI-H23
NCI-H460 = test system: NCI-H460
NCI-H522 = test system: NCI-H522
NCI/ADR-RES = test system: NCI/ADR-RES
OVCAR-3 = test system: OVCAR-3
OVCAR-4 = test system: OVCAR-4
OVCAR-5 = test system: OVCAR-5
OVCAR-8 = test system: OVCAR-8
PC-3 = test system: PC-3
RPMI-8226 = test system: RPMI-8226
RXF 393 = test system: RXF 393
SF-268 = test system: SF-268
SF-295 = test system: SF-295
SF-539 = test system: SF-539
SK-MEL-28 = test system: SK-MEL-28
SK-MEL-2 = test system: SK-MEL-2
SK-MEL-5 = test system: SK-MEL-5
SK-OV-3 = test system: SK-OV-3
SN12C = test system: SN12C
SNB-19 = test system: SNB-19
SNB-75 = test system: SNB-75
SR = test system: SR
SW-620 = test system: SW-620
T47D = test system: T47D
TK-10 = test system: TK-10
U-251 = test system: U-251
UACC-257 = test system: UACC-257
UACC-62 = test system: UACC-62
UO-31 = test system: UO-31

Nc1nc(Cl)cc(NCC2(CO)CCCCC2)n1
GI50 (786-0): > 100 µM (inactive) | GI50 (A498): 70.8 µM (inactive) | GI50 (A549): > 100 µM (inactive) | GI50 (ACHN): > 100 µM (inactive) | GI50 (BT-549): > 100 µM (inactive) | GI50 (CAKI-1): > 100 µM (inactive) | GI50 (CCRF-CEM): > 100 µM (inactive) | GI50 (COLO 205): > 100 µM (inactive) | GI50 (DU-145): > 100 µM (inactive) | GI50 (EKVX): 67 µM (inactive) | GI50 (HCT-116): > 100 µM (inactive) | GI50 (HCT-15): > 100 µM | GI50 (HL-60): > 100 µM (inactive) | GI50 (HOP-62): > 100 µM (inactive) | GI50 (HOP-92): 56.9 µM (inactive) | GI50 (HT-29): > 100 µM (inactive) | GI50 (Hs-578T): > 100 µM (inactive) | GI50 (IGROV-1): > 100 µM (inactive) | GI50 (K562): 94 µM (inactive) | GI50 (KM12): > 100 µM (inactive) | GI50 (LOX IMVI): 49.3 µM (inactive) | GI50 (M14): > 100 µM (inactive) | GI50 (MCF7): 97.9 µM (inactive) | GI50 (MDA-MB-231): > 100 µM (inactive) | GI50 (MDA-MB-435): > 100 µM (inactive) | GI50 (MDA-N): > 100 µM (inactive) | GI50 (MOLT-4): 59.4 µM (inactive) | GI50 (Malme-3M): > 100 µM (inactive) | GI50 (NCI-H226): > 100 µM (inactive) | GI50 (NCI-H23): 48.9 µM (inactive) | GI50 (NCI-H460): > 100 µM (inactive) | GI50 (NCI-H522): > 100 µM (inactive) | GI50 (NCI/ADR-RES): 39.7 µM (inactive) | GI50 (OVCAR-3): > 100 µM (inactive) | GI50 (OVCAR-4): 80.7 µM (inactive) | GI50 (OVCAR-5): > 100 µM (inactive) | GI50 (OVCAR-8): > 100 µM (inactive) | GI50 (PC-3): 83.4 µM (inactive) | GI50 (RPMI-8226): 97.5 µM (inactive) | GI50 (RXF 393): > 100 µM (inactive) | GI50 (SF-268): > 100 µM (inactive) | GI50 (SF-295): > 100 µM (inactive) | GI50 (SF-539): > 100 µM (inactive) | GI50 (SK-MEL-28): > 100 µM (inactive) | GI50 (SK-MEL-2): > 100 µM (inactive) | GI50 (SK-MEL-5): 44 µM (inactive) | GI50 (SK-OV-3): > 100 µM (inactive) | GI50 (SN12C): 81.1 µM (inactive) | GI50 (SNB-19): > 100 µM (inactive) | GI50 (SNB-75): > 100 µM (inactive) | GI50 (SR): 68.2 µM (inactive) | GI50 (SW-620): > 100 µM (inactive) | GI50 (T47D): 38.5 µM (inactive) | GI50 (TK-10): > 100 µM (inactive) | GI50 (U-251): > 100 µM (inactive) | GI50 (UACC-257): 64.7 µM (inactive) | GI50 (UACC-62): > 100 µM (inactive) | GI50 (UO-31): > 100 µM (inactive)

NS(=O)(=O)c1ccc(/N=N/c2cc3ccccc3c(C(=O)O)c2O)cc1
GI50 (786-0): > 55.8 µM (inactive) | GI50 (A498): > 53.6 µM (inactive) | GI50 (A549): > 52.7 µM (inactive) | GI50 (ACHN): 15.7 µM (inactive) | GI50 (BT-549): 99.1 µM (inactive) | GI50 (CAKI-1): > 100 µM (inactive) | GI50 (CCRF-CEM): 78 µM (inactive) | GI50 (COLO 205): > 58.6 µM (inactive) | GI50 (DU-145): > 46 µM (inactive) | GI50 (EKVX): > 100 µM (inactive) | GI50 (HCT-116): 12.6 µM (inactive) | GI50 (HCT-15): > 49.7 µM | GI50 (HL-60): > 100 µM (inactive) | GI50 (HOP-62): > 59.2 µM (inactive) | GI50 (HOP-92): 99.1 µM (inactive) | GI50 (HT-29): > 55.7 µM (inactive) | GI50 (Hs-578T): > 67.3 µM (inactive) | GI50 (IGROV-1): 41.6 µM (inactive) | GI50 (K562): > 100 µM (inactive) | GI50 (KM12): 5.18 µM (inactive) | GI50 (LOX IMVI): > 54.5 µM (inactive) | GI50 (M14): 97.1 µM (inactive) | GI50 (MCF7): 2.68 µM (inactive) | GI50 (MDA-MB-231): > 52 µM (inactive) | GI50 (MDA-MB-435): > 55.8 µM (inactive) | GI50 (MDA-N): > 100 µM (inactive) | GI50 (MOLT-4): > 57 µM (inactive) | GI50 (Malme-3M): > 56.9 µM (inactive) | GI50 (NCI-H226): > 100 µM (inactive) | GI50 (NCI-H23): > 47.8 µM (inactive) | GI50 (NCI-H460): 10.5 µM (inactive) | GI50 (NCI-H522): > 41 µM (inactive) | GI50 (NCI/ADR-RES): > 64.1 µM (inactive) | GI50 (OVCAR-3): > 47.8 µM (inactive) | GI50 (OVCAR-4): > 46.5 µM (inactive) | GI50 (OVCAR-5): > 54.3 µM (inactive) | GI50 (OVCAR-8): > 56.8 µM (inactive) | GI50 (PC-3): > 48.3 µM (inactive) | GI50 (RPMI-8226): > 100 µM (inactive) | GI50 (RXF 393): > 46.2 µM (inactive) | GI50 (SF-268): > 52.1 µM (inactive) | GI50 (SF-295): > 100 µM (inactive) | GI50 (SF-539): > 100 µM (inactive) | GI50 (SK-MEL-28): > 60.1 µM (inactive) | GI50 (SK-MEL-2): > 45.1 µM (inactive) | GI50 (SK-MEL-5): > 59.2 µM (inactive) | GI50 (SK-OV-3): > 66.4 µM (inactive) | GI50 (SN12C): > 78.3 µM (inactive) | GI50 (SNB-19): > 64.9 µM (inactive) | GI50 (SNB-75): > 60.7 µM (inactive) | GI50 (SR): 2.31 µM (inactive) | GI50 (SW-620): > 41.8 µM (inactive) | GI50 (T47D): > 54.1 µM (inactive) | GI50 (TK-10): > 47.4 µM (inactive) | GI50 (U-251): > 39.9 µM (inactive) | GI50 (UACC-257): > 58.2 µM (inactive) | GI50 (UACC-62): > 55.7 µM (inactive) | GI50 (UO-31): > 49.8 µM (inactive)

From ChEMBL document CHEMBL1201862, “PubChem BioAssay data set” (2004)
